According to ChEMBL document CHEMBL4507268 (2021):

Key:
Conditions in all cases: Compound concentration 1000.0 nM
[1] = biological target: Mitogen-activated protein kinase kinase kinase 11 (Homo sapiens) (UniProt Q16584)
[2] = biological target: T1, Serine/threonine-protein kinase Nek9 (Homo sapiens) (UniProt Q8TD19)
T1 sequence (whole entry): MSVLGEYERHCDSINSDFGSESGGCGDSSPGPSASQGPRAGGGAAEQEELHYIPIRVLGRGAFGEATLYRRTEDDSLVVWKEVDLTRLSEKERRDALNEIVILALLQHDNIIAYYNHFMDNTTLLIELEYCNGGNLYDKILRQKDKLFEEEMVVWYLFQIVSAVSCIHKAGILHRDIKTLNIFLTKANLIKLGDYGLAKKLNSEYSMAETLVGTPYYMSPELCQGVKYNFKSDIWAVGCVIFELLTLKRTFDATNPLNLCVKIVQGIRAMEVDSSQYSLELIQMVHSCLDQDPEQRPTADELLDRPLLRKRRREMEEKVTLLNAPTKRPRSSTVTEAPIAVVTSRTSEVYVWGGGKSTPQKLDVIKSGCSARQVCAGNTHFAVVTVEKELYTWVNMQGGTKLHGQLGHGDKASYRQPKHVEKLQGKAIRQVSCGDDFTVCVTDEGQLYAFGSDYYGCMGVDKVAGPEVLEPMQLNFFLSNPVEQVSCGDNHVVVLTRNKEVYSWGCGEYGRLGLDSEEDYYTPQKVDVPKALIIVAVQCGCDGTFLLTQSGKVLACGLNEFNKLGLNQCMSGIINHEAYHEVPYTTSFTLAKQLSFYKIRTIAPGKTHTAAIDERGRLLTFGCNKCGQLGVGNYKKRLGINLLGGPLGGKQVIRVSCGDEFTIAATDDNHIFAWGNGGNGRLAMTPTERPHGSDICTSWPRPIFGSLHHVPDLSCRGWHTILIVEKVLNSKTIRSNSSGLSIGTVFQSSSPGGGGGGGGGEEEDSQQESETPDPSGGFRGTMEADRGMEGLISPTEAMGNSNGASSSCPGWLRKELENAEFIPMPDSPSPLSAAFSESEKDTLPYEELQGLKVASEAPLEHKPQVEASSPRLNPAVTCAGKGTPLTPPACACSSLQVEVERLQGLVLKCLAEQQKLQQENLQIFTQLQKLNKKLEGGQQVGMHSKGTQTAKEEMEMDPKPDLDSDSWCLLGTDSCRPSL

[3] = biological target: Focal adhesion kinase 1 (Homo sapiens) (UniProt Q05397)
[4] = biological target: T2, Testis-specific serine/threonine-protein kinase 1 (Homo sapiens) (UniProt Q9BXA7)
T2 sequence (whole entry): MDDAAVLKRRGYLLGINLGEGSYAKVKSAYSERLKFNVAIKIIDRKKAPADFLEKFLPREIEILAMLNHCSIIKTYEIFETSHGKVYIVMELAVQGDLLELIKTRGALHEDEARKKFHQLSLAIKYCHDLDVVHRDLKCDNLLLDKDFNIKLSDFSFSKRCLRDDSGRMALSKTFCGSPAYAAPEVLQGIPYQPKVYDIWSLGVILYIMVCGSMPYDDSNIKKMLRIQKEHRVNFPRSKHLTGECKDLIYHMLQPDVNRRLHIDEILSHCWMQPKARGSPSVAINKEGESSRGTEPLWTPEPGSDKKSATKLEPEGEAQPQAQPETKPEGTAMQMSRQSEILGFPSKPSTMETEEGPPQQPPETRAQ

[5] = biological target: T3, Serine/threonine-protein kinase 17B (Homo sapiens) (UniProt O94768)
T3 sequence (whole entry): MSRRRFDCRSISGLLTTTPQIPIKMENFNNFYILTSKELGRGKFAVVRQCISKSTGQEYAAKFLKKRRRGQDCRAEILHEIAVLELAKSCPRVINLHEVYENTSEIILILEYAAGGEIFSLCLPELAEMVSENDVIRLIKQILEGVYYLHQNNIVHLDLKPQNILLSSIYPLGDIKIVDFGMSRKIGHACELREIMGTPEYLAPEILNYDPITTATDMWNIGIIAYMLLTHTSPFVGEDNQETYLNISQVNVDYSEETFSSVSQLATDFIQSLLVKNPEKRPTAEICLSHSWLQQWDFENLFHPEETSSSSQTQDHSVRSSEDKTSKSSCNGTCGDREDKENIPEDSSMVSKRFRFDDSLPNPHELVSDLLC

[6] = biological target: T4, Serine/threonine-protein kinase Nek2 (Homo sapiens) (UniProt P51955)
T4 sequence (whole entry): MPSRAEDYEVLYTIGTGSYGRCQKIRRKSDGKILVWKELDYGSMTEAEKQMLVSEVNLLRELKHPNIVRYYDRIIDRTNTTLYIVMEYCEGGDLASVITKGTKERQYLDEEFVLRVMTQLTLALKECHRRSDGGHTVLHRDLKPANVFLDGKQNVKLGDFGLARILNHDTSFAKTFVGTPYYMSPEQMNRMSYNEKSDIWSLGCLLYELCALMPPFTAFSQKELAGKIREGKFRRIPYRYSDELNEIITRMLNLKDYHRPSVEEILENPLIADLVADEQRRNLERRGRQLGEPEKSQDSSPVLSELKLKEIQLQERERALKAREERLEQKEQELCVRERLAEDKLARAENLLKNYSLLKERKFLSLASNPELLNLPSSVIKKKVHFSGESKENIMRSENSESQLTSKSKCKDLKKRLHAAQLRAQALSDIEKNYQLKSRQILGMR

[7] = biological target: 5'-AMP-activated protein kinase catalytic subunit alpha-2 (Homo sapiens) (UniProt P54646)
[8] = biological target: Tyrosine-protein kinase ABL1 (Homo sapiens) (UniProt P00519)
[9] = biological target: T5, Serine/threonine-protein kinase ULK3 (Homo sapiens) (UniProt Q6PHR2)
T5 sequence (whole entry): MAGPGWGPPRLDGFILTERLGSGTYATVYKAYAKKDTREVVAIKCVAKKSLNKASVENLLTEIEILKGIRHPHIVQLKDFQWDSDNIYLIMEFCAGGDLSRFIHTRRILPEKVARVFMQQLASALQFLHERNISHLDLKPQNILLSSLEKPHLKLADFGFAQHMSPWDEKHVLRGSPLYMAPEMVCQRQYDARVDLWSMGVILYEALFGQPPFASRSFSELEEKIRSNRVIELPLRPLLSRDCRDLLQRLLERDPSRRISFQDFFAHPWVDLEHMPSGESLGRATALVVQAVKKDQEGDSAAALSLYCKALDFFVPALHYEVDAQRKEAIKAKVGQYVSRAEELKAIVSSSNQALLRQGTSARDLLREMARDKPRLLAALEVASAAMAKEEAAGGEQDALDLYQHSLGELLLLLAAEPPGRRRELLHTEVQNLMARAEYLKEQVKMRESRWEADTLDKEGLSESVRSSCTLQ

5'-AMP-activated protein kinase catalytic subunit alpha-2 (Homo sapiens), sequence (P54646 whole entry, looked up): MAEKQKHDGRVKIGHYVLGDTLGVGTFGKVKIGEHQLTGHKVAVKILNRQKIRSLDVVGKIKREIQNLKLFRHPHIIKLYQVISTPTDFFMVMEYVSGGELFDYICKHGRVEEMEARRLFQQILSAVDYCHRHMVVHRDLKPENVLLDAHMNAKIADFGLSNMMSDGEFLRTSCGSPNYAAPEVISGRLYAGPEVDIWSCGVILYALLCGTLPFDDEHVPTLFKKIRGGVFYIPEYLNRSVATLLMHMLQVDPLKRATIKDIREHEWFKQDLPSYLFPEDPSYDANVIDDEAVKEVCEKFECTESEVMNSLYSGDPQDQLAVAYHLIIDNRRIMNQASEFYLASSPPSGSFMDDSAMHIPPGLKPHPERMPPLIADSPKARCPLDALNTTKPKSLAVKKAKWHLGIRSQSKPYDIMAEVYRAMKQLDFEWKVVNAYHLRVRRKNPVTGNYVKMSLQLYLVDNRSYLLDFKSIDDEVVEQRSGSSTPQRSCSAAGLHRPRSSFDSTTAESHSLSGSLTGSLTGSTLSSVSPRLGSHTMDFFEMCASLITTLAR
Mitogen-activated protein kinase kinase kinase 11 (Homo sapiens), sequence (Q16584 whole entry, looked up): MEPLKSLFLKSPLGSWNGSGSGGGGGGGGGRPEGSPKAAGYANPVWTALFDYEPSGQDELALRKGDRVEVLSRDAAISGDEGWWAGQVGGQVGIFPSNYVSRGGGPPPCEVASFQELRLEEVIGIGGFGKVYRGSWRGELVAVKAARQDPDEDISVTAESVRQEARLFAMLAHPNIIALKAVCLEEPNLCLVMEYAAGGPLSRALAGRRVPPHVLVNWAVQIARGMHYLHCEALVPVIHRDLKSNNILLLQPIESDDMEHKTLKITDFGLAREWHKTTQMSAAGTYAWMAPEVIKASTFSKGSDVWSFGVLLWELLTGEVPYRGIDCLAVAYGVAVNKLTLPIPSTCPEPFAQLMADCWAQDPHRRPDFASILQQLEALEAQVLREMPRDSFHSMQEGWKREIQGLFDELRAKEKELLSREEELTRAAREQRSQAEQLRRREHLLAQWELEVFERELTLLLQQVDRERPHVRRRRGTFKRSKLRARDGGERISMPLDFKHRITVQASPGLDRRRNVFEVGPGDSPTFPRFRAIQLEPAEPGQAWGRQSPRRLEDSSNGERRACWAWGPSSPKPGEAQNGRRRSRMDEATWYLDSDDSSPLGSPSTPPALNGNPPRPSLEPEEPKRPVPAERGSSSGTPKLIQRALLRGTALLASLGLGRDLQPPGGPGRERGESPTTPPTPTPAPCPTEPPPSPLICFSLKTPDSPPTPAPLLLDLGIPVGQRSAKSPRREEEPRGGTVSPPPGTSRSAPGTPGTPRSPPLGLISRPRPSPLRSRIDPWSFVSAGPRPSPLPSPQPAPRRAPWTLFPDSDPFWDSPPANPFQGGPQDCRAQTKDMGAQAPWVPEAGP
Focal adhesion kinase 1 (Homo sapiens), sequence (Q05397 2-1052 limits assumed): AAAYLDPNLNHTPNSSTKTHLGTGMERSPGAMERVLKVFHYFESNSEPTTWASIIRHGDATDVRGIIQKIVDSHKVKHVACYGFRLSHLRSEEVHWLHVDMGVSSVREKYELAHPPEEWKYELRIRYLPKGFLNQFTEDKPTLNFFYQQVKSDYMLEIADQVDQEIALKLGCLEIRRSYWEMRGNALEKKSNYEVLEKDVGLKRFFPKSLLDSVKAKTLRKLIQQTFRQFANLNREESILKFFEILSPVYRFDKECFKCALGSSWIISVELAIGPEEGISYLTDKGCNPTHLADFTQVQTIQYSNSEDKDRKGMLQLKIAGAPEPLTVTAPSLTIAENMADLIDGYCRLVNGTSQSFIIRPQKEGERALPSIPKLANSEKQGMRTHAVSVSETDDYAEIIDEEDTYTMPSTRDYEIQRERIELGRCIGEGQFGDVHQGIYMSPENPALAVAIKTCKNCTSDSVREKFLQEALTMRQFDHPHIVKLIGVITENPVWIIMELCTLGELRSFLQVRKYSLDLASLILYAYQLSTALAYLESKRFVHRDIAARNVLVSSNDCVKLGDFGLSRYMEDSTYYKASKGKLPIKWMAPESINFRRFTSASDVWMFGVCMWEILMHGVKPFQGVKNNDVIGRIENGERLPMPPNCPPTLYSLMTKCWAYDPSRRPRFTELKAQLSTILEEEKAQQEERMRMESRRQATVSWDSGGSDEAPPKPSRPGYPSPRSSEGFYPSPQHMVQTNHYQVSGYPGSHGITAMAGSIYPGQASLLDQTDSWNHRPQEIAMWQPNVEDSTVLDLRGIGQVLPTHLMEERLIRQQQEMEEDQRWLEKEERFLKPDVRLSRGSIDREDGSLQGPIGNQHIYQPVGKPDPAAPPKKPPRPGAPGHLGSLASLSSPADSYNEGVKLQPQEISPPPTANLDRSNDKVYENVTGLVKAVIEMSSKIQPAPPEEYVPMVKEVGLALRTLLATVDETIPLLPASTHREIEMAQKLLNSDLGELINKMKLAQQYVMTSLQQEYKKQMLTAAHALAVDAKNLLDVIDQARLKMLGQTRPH
Tyrosine-protein kinase ABL1 (Homo sapiens), sequence (P00519 whole entry): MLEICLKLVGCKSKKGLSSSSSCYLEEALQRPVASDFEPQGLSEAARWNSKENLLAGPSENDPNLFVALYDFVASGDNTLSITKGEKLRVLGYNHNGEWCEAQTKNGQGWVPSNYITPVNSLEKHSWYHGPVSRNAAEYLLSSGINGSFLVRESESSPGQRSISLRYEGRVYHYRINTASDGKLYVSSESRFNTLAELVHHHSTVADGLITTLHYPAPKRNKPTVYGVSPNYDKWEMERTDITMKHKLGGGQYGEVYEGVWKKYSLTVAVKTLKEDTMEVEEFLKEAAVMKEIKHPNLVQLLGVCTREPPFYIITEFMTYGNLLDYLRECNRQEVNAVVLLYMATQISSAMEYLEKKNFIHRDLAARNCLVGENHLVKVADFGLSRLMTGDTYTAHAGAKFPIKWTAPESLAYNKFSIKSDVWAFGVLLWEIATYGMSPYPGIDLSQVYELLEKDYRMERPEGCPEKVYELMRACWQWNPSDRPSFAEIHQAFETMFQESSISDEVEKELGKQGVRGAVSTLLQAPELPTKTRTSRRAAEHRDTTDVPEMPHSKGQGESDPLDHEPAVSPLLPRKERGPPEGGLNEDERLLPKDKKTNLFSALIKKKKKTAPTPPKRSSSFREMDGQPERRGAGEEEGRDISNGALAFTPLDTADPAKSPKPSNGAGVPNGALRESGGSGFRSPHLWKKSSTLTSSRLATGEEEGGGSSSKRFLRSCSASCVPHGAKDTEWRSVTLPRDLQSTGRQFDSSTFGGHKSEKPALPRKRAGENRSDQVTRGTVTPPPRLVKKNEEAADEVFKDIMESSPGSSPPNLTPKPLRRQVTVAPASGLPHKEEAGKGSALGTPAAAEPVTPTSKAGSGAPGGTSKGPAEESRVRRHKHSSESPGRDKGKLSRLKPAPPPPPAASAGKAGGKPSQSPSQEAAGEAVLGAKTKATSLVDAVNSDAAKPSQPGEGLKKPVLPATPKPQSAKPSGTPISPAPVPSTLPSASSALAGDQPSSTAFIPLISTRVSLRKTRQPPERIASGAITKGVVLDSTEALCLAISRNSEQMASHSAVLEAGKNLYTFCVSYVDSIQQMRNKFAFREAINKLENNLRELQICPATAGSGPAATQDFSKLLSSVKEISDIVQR

## Cc1nc(C2CCN(C(=O)c3ccc(OC(F)(F)F)cc3N)CC2)c2ncc(N3CCN(C)CC3)cc2n1 [BAY-693]
[1]
  residual activity: 100%
[2]
  residual activity: 94%
[3]
  residual activity: 91%
[4]
  residual activity: 100%
[5]
  residual activity: 99%
[6]
  residual activity: 100%
[7]
  residual activity: 100%
[8]
  residual activity: 92%
[9]
  residual activity: 46%

## CN1CCN(c2cnc3c(C4CCN(C(=O)c5ccc(OC(F)(F)F)cc5N)CC4)ncnc3c2)CC1 [BAY-885]
[1]
  residual activity: 100%
[2]
  residual activity: 100%
[3]
  residual activity: 100%
[4]
  residual activity: 100%
[5]
  residual activity: 86%
[6]
  residual activity: 100%
[7]
  residual activity: 100%
[8]
  residual activity: 86%
[9]
  residual activity: 100%
